One may read the IC50 as the point on the concentration scale where inhibition reaches its midpoint.

In this assay the test system is JAK1-dependent STAT6 phosphorylation downstream of IL-13 stimulation in TF-1 human erythroleukemia cells. In words: cells. To be noted: TF-1, read-out: IL-13-pSTAT6 IC50.
For the compound `O=C(NCC1CCCCN1)c1ccc(Nc2nc3c(C4=CCN(C(=O)CCC(F)(F)F)CC4)cccn3n2)cc1` (stereo not drawn) [Example 2-385, N-(2-piperidylmethyl)-4-[[8-[1-(4,4,4-trifluorobutanoyl)-3,6-dihydro-2H-pyridin-4-yl]-[1,2,4]triazolo[1,5-a]pyridin-2-yl]amino]benzamide], the IC50 is 174 nM.
The same measure for `O=C(CCC(F)(F)F)N1CC=C(c2cccn3nc(Nc4ccc(C(=O)N5CCC6CNCC65)cc4)nc23)CC1` (stereo not drawn) [Example 2-386, 1-[4-[2-[4-(3,3a,4,5,6,6a-hexahydro-2H-pyrrolo[2,3-c]pyrrole-1-carbonyl)anilino]-[1,2,4]triazolo[1,5-a]pyridin-8-yl]-3,6-dihydro-2H-pyridin-1-yl]-4,4,4-trifluoro-butan-1-one]: 155 nM; for `O=C(CCC(F)(F)F)N1CC=C(c2cccn3nc(Nc4ccc(C(=O)N5C[C@@H]6CCN[C@@H]6C5)cc4)nc23)CC1` [Example 2-387, 1-[4-[2-[4-[(3aS,6aS)-2,3,3a,4,6,6a-hexahydro-1H-pyrrolo[2,3-c]pyrrole-5-carbonyl]anilino]-[1,2,4]triazolo[1,5-a]pyridin-8-yl]-3,6-dihydro-2H-pyridin-1-yl]-4,4,4-trifluoro-butan-1-one]: 147 nM; for `O=C(NCC1CC12CCNCC2)c1ccc(Nc2nc3c(C4=CCN(C(=O)CCC(F)(F)F)CC4)cccn3n2)cc1` (stereo not drawn) [Example 2-388, N-(6-azaspiro[2.5]octan-2-ylmethyl)-4-[[8-[1-(4,4,4-trifluorobutanoyl)-3,6-dihydro-2H-pyridin-4-yl]-[1,2,4]triazolo[1,5-a]pyridin-2-yl]amino]benzamide]: 141 nM.
Consider `CN1CCCC(CN(C)C(=O)c2ccc(Nc3nc4c(C5=CCN(C(=O)CCC(F)(F)F)CC5)cccn4n3)cc2)C1` (stereo not drawn) [Example 2-389, N-methyl-N-[(1-methyl-3-piperidyl)methyl]-4-[[8-[1-(4,4,4-trifluorobutanoyl)-3,6-dihydro-2H-pyridin-4-yl]-[1,2,4]triazolo[1,5-a]pyridin-2-yl]amino]benzamide], for which the IC50 was determined as 12.6 nM.
The same measure for `O=C(CCC(F)(F)F)N1CC=C(c2cccn3nc(Nc4ccc(C(=O)N5CCCC(O)(CN6CCCC6)CC5)cc4)nc23)CC1` (stereo not drawn) [Example 2-390, 4,4,4-trifluoro-1-[4-[2-[4-[4-hydroxy-4-(pyrrolidin-1-ylmethyl)azepane-1-carbonyl]anilino]-[1,2,4]triazolo[1,5-a]pyridin-8-yl]-3,6-dihydro-2H-pyridin-1-yl]butan-1-one]: 178 nM; for `CN1CCC2(CC1)CN(C(=O)c1ccc(Nc3nc4c(C5=CCN(C(=O)CCC(F)(F)F)CC5)cccn4n3)cc1)C2` [Example 2-391, 4,4,4-trifluoro-1-[4-[2-[4-(7-methyl-2,7-diazaspiro[3.5]nonane-2-carbonyl)anilino]-[1,2,4]triazolo[1,5-a]pyridin-8-yl]-3,6-dihydro-2H-pyridin-1-yl]butan-1-one]: 5.7 nM; for `O=C(CCC(F)(F)F)N1CC=C(c2cccn3nc(Nc4ccc(C(=O)N5CC6(CNC6)C5)cc4)nc23)CC1` [Example 2-392, 1-[4-[2-[4-(2,6-diazaspiro[3.3]heptane-2-carbonyl)anilino]-[1,2,4]triazolo[1,5-a]pyridin-8-yl]-3,6-dihydro-2H-pyridin-1-yl]-4,4,4-trifluoro-butan-1-one]: 217 nM.
`CN1CCN(C2CCN(C(=O)c3ccc(Nc4nc5c(C6=CCN(C(=O)CCC(F)(F)F)CC6)cccn5n4)cc3)CC2)CC1` [Example 2-393, 4,4,4-trifluoro-1-[4-[2-[4-[4-(4-methylpiperazin-1-yl)piperidine-1-carbonyl]anilino]-[1,2,4]triazolo[1,5-a]pyridin-8-yl]-3,6-dihydro-2H-pyridin-1-yl]butan-1-one]: the IC50 came to 23.4 nM.
